How the values were obtained:
[1] = test system: P. aeruginosa PAO1 and 27853; assay type: cell-based, Pseudomonas aeruginosa
[2] = test system: PA-I lectin/adhesin expression in P. aeruginosa; assay type: cell-based, Pseudomonas aeruginosa
[3] = test system: human pulmonary artery endothelial cells (HPAEC); test: Reversal of thrombin- or LPS-induced barrier disruption (TEER); assay type: cell-based; conditions: LPS

Molecule	biofilm production [1]	PA-I protein (immunoblot) [2]	duration of decrease in barrier resistance [3]
C=CCN1C[C@H](C)N([C@H](c2ccc(C(=O)N(CC)CC)cc2)c2cccc(O)c2)C[C@H]1C [BW373U86]	especially increased with the δ agonist	induced PA-I protein to the same degree as C4-HSL	–
lipopolysaccharide [LPS]	–	–	over 20 hours
